Several values for one entry are separate records, joined by “and”; a condition that tells them apart may be missing. Equal values may be shown once. After the bases stand the sugars from the 5' end (letter, count) and the backbone: PS all phosphorothioate, else s phosphorothioate and o phosphodiester by linkage. HELM strings list units from the 5' end as sugar, base in round brackets, then linkage (d deoxyribose, r ribose, m 2'-O-methyl, p phosphodiester). Methylation of C is not given here. [moe] = 2'-O-(2-methoxyethyl) (MOE); [cEt] = constrained ethyl (cEt); [sp] = phosphorothioate linkage; e = 2'-O-(2-methoxyethyl) (MOE); k = constrained ethyl (cEt); d = 2'-deoxy (DNA)

The target of one data set is HBV. To be noted: ASO, HepG2, 0.07 µM.
Take “RNA1{[moe](T)[sp].[moe](G)[sp].d(C)[sp].d(A)[sp].d(G)[sp].d(A)[sp].d(G)[sp].d(G)[sp].d(T)[sp].d(G)[sp].d(A)[sp].[moe](A)[sp].[moe](G)[sp].[moe](C)[sp].[moe](G)[sp].[moe](A)[sp].[moe](A)}$$$$V2.0”: the target mRNA inhibition was 39% and 45%. Take “RNA1{[moe](T)[sp].[moe](T)[sp].[moe](C)[sp].[moe](C)[sp].d(G)[sp].d(C)[sp].d(A)[sp].d(G)[sp].d(T)[sp].d(A)[sp].d(T)[sp].d(G)[sp].d(G)[sp].[moe](A)[sp].[moe](T)[sp].[moe](C)[sp].[moe](G)}$$$$V2.0”: the target mRNA inhibition is 56% and 38%.

In the case of “RNA1{[moe](T)[sp].[moe](T)[sp].[moe](T)[sp].[moe](A)[sp].d(T)[sp].d(G)[sp].d(C)[sp].d(C)[sp].d(T)[sp].d(A)[sp].d(C)[sp].d(A)[sp].d(G)[sp].[moe](C)[sp].[moe](C)[sp].[moe](T)[sp].[moe](C)}$$$$V2.0”, the target mRNA inhibition was 54% and 37%.

For “RNA1{[moe](T)[sp].[moe](T)[sp].[moe](T)[sp].d(A)[sp].d(T)[sp].d(G)[sp].d(C)[sp].d(C)[sp].d(T)[sp].d(A)[sp].d(C)[sp].d(A)[sp].d(G)[sp].[cEt](C)[sp].[cEt](C)[sp].[cEt](T)}$$$$V2.0”, the target mRNA inhibition is 45% and 55%. For “RNA1{[moe](T)[sp].[moe](T)[sp].d(T)[sp].d(A)[sp].d(T)[sp].d(G)[sp].d(C)[sp].d(C)[sp].d(T)[sp].d(A)[sp].d(C)[sp].[moe](A)[sp].[moe](G)[sp].[moe](C)[sp].[moe](C)[sp].[moe](T)}$$$$V2.0”, the target mRNA inhibition is 46% and 47%.

A further data set deals with IRF5. To be noted: ASO, KARPAS-229, 0.44444 µM.
Substance ACCACTGTGTACCCCA (sugars k3 d10 k3, PS) yielded a target mRNA inhibition of 16%.

Substance “ACCACTGTGTACCCCA (sugars kekdddddddddeekk, PS)” yielded a target mRNA inhibition of 28%. Consider ACGAGTTATGGGAAGG (sugars k3 d10 k3, PS), for which the target mRNA inhibition came to 50%.

The data set is the same for the next values; noted with them: ASO, KARPAS-229, 1.33333 µM.
In turn, ACCACTGTGTACCCCA (sugars k3 d10 k3, PS) registered a target mRNA inhibition of 41%. Take “ACCACTGTGTACCCCA (sugars kekdddddddddeekk, PS)”: the target mRNA inhibition came out at 45%. As for ACGAGTTATGGGAAGG (sugars k3 d10 k3, PS), the target mRNA inhibition was 54%.

The same data set, now with this note: ASO, KARPAS-229, 4 µM.
In turn, “AAGGGCACAGACGCAGG (sugars kdddddddddkekeked, PS)” had a target mRNA inhibition of 0%. With AAGGGCACAGCGCAGG (sugars k3 d10 k3, PS), the target mRNA inhibition was 48% and 42%. Same read-out and setting: the same measure for AATGCAACATCCATCA (sugars k3 d10 k3, PS): 0%; for “ACATCTCCACATCAGT (sugars k2 d9 e3 k2, PS)”: 41%; for “ACATCTCCACATCAGT (sugars k3 d9 k3 e1, PS)”: 11%. As to “ACATCTCCACATCAGT (sugars kkdddddddddkdkdk, PS)”, the target mRNA inhibition was 28%. “ACATCTCCACATCAGT (sugars kkkddddddddkekek, PS)” gave a target mRNA inhibition of 14%. In the case of ACCACTGTGTACCCCA (sugars k3 d10 k3, PS), the target mRNA inhibition is 75% and 57%. “ACCACTGTGTACCCCA (sugars kekdddddddddeekk, PS)”: the target mRNA inhibition is 63% and 62%. The same measure, in the same setting: the value for “ACCACTGTGTACCCCA (sugars kkddddddddkekekk, PS)” was 15%. Turning to “ACCACTGTGTACCCCA (sugars kkkdddddddddkeke, PS)”, the target mRNA inhibition is 39%. In turn, “ACCATTCTATGCCTTT (sugars kkdddddddddkekek, PS)” yielded a target mRNA inhibition of 40%.

For the substance “ACCATTCTATGCCTTT (sugars kkddddddddkekekk, PS)”, the target mRNA inhibition turned out to be 0%.

Take “ACCATTCTATGCCTTT (sugars kkkdddddddddkeke, PS)”: the target mRNA inhibition turned out to be 49%. Same read-out and setting: the value for “ACCATTCTATGCCTTT (sugars kkkddddddddkekek, PS)” was 15%. ACCCAATGCAACATCC (sugars k3 d10 k3, PS) displayed a target mRNA inhibition of 33%. Regarding ACGAGCAAAGGGTGAG (sugars k3 d10 k3, PS), the target mRNA inhibition worked out at 47%. Turning to ACGAGTTATGGGAAGG (sugars k3 d10 k3, PS), the target mRNA inhibition was 74% and 73%. As for “ACTGACACAGGCGGAT (sugars k2 d9 e3 k2, PS)”, the target mRNA inhibition came to 0%. Regarding “ACTGACACAGGCGGAT (sugars kkddddddddddkeke, PS)”, the target mRNA inhibition amounted to 0%. Take “ACTGACACAGGCGGAT (sugars kkdddddddddkekek, PS)”: the target mRNA inhibition worked out at 0%. On to ACTGTATTACCTATAC (sugars k3 d10 k3, PS), for which the target mRNA inhibition worked out at 22%. Substance AGACTTTTTGCTCTAA (sugars k3 d10 k3, PS) yielded a target mRNA inhibition of 0%. Turning to “AGATGGTGTTATCTCC (sugars kdddddddddkekeke, PS)”, the target mRNA inhibition was 0%.

On to “AGCTTGGTCTTGACCT (sugars kddddddddddkekek, PS)”, for which the target mRNA inhibition was 0%. With “AGGAAGTGAGTCTCAA (sugars k3 d9 k3 e1, PS)”, the target mRNA inhibition is 47%. In turn, AGGAAGTGAGTCTCAA (sugars k3 d10 k3, PS) had a target mRNA inhibition of 42%. For “AGGAAGTGAGTCTCAA (sugars kddddddddddkekek, PS)”, the target mRNA inhibition came to 11%. On the same count and under the same terms, the value for “AGGAAGTGAGTCTCAA (sugars kkkddddddddkekek, PS)” was 24%.

With “AGGAGTGAGACGAGCA (sugars kddddddddddkekek, PS)”, the target mRNA inhibition turned out to be 37%. Same read-out and setting: the value for “AGGAGTGAGACGAGCA (sugars kdddddddddkekeke, PS)” was 0%; that for “AGGAGTGAGACGAGCA (sugars kkddddddddkekekk, PS)” was 35%. For “AGGAGTGAGACGAGCA (sugars kkkddddddddkdkdk, PS)”, the target mRNA inhibition came out at 37%. The substance “AGGTTCTTGGACTCTC (sugars kekdddddddddeekk, PS)” gave a target mRNA inhibition of 0%. In turn, “AGGTTCTTGGACTCTC (sugars kkkdddddddddkeke, PS)” registered a target mRNA inhibition of 0%. Same read-out and setting: the same measure for “AGGTTCTTGGACTCTC (sugars kkkddddddddkdkdk, PS)”: 0%; for “AGTCATGGGCGTGAGGC (sugars kkddddddddkekekkd, PS)”: 17%; for “AGTCATGGGCTGAGGC (sugars kddddddddddkekek, PS)”: 25%.

In turn, ATAGGAGTGAGACGAG (sugars k3 d10 k3, PS) had a target mRNA inhibition of 16%. With “ATCACCACTGTGTACC (sugars kddddddddddkekek, PS)”, the target mRNA inhibition was found to be 0%. Substance “ATCACCACTGTGTACC (sugars kekdddddddddeekk, PS)” had a target mRNA inhibition of 0%. Turning to “ATCACCACTGTGTACC (sugars kkkdddddddddkeke, PS)”, the target mRNA inhibition is 0%. On to “ATCACCACTGTGTACC (sugars kkkddddddddkdkdk, PS)”, for which the target mRNA inhibition was found to be 0%. With “ATGAGTCATGGGCTGA (sugars kdddddddddkekeke, PS)”, the target mRNA inhibition amounted to 7%. “ATGGTGTTATCTCCGT (sugars kddddddddddkekek, PS)” came in with a target mRNA inhibition of 0%. “ATTTCTGCTCCAGGTT (sugars kddddddddddkekek, PS)” came in with a target mRNA inhibition of 39%. On to “CAATGCAACATCCATC (sugars kdddddddddkekeke, PS)”, for which the target mRNA inhibition came out at 0%. The substance “CAATGCAACATCCATC (sugars kkddddddddkekekk, PS)” yielded a target mRNA inhibition of 0%.

Still in this data set, the particulars now being: ASO, KARPAS-229, 12 µM.
Regarding ACCACTGTGTACCCCA (sugars k3 d10 k3, PS), the target mRNA inhibition worked out at 65%. As to “ACCACTGTGTACCCCA (sugars kekdddddddddeekk, PS)”, the target mRNA inhibition worked out at 77%. ACGAGTTATGGGAAGG (sugars k3 d10 k3, PS) registered a target mRNA inhibition of 81%.

For the origin of these results see the OligoGym collection.
